# Data published in patent US11186564B2, “Dual NAV1.2/5HT2a inhibitors for treating CNS disorders” (Sunovion Pharmaceuticals Inc., priority 2016, dated 2021).
# What was measured:
# [1] = biological target: human sodium channel NaV1.2 (Homo sapiens, UniProt Q99250); assay: NaV1.2 inhibition, automated patch-clamp (Q-Patch HTX), slow inactivated state (state C); format: cell-based; conditions: hNaV1.2 CHO cells, slow inactivated state; for IC50: read-out: NaV1.2 IC50; for inhibition at 1 µM: 1 μM compound, read-out: NaV1.2 (% inh), 1 μM; for inhibition at 10 µM: 10 μM compound, read-out: NaV1.2 (% inh), 10 μM
# human sodium channel NaV1.2, sequence (Q99250 whole entry): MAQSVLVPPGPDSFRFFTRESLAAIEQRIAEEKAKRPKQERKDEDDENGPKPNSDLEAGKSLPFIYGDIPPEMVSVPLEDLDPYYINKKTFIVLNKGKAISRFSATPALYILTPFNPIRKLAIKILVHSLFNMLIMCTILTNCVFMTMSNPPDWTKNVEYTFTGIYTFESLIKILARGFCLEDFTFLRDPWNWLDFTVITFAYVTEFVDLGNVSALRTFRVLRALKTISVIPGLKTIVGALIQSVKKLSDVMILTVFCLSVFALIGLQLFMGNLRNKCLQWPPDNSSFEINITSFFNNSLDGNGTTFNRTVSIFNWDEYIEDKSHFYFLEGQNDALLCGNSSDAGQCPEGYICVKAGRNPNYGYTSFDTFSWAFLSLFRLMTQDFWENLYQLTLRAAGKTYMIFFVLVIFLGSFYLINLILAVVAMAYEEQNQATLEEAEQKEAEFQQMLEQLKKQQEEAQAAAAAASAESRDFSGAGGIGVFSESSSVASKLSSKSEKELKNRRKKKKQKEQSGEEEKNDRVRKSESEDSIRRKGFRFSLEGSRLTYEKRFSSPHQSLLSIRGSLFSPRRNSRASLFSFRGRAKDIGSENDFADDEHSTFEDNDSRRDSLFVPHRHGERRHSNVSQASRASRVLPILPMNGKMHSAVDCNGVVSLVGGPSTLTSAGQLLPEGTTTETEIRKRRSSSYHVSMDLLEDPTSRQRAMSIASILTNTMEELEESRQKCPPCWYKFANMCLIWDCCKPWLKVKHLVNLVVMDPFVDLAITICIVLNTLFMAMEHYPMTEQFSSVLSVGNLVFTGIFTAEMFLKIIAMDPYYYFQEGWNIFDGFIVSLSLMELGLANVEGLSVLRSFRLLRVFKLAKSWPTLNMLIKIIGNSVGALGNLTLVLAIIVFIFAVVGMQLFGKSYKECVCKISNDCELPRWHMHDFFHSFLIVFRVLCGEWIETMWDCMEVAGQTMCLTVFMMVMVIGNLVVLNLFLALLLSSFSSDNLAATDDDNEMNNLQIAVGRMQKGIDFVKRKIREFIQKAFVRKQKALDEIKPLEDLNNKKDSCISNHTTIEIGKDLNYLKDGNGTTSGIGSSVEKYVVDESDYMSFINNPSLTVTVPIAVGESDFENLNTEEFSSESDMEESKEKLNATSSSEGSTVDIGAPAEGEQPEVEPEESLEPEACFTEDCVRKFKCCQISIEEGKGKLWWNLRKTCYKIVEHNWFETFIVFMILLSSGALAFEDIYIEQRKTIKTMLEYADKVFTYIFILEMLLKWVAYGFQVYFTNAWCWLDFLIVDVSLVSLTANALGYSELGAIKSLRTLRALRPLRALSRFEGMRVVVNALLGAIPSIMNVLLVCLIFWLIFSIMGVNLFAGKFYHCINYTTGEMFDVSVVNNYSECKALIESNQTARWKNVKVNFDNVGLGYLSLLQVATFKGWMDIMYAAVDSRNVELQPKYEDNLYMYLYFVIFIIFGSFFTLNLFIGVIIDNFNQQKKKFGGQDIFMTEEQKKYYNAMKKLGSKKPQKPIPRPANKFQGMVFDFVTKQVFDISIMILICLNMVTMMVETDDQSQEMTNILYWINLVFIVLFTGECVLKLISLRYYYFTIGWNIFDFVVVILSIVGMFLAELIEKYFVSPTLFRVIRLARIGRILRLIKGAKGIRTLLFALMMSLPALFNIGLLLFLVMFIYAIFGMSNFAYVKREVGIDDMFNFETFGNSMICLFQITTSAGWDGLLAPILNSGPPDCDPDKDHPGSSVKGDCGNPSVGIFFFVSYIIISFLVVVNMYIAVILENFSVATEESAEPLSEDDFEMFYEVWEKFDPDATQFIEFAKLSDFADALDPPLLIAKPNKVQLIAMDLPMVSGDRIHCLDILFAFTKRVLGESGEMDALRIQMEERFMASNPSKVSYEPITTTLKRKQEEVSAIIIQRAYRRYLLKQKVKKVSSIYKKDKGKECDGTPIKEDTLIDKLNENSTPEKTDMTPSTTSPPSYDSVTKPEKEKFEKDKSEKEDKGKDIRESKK
# From the text: In vitro method for NaV1.2 inhibition assays: The methods utilized to assess the inhibitory activity of compounds on NaV1.2 were based on the methods described by Liu et al. [Liu Y, Beck E J, & Flores C M (2011): Validation of a patch clamp screening protocol that simultaneously measures compound activity in multiple states of the voltage-gated sodium channel Nav1.2. Assay Drug Development Technology 9, 628-634]. For these electrophysiology assays, a cell line (Chinese Hamster Ovarian K-1 cells (CHO K-1)) engineered to stably express human sodium channel NaV1.2 was purchased from Millipore Corporation (catalog no. CYL3023). The electrophysiology measurements were performed using automated patch-clamp methods on a Q-Patch HTX instrument by scientists at Evotec AG under contract with Sunovion.
# The solutions utilized for the Qpatch experiments were similar buffered solutions to those described by Liu et al. [Liu Y, Beck E J, & Flores C M (2011)]. The extracellular solution contained 140 millimolar sodium chloride, 4 millimolar potassium chloride, 2 millimolar calcium chloride, 1 millimolar magnesium chloride, 10 millimolar 4-(2-hydroxyethyl)-1-piperazineethanesulfonic acid (HEPES), and 10 millimolar glucose (pH adjusted to 7.4 with sodium hydroxide). The intracellular solution contained 100 millimolar cesium fluoride, 45 millimolar cesium chloride, 10 millimolar HEPES, 5 millimolar ethylene glycol tetraacetic acid (EGTA), and 5 millimolar glucose (pH adjusted to 7.2 with cesium hydroxide).
# The biophysical experiments of Lui et al. [Liu Y, Beck E J, & Flores C M (2011)] were replicated to assess the fast, slow and total inactivation characteristics of the human Nav1.2 channel
# Based upon results from studies of the fast, slow and total inactivation characteristics of the human Nav1.2 channel, a voltage protocol involving a sequence of consecutive pulses of current was used to measure channel activity in several states [Liu Y, Beck E J, & Flores C M (2011)]. The monolayer of CHO K-1 cells stably expressing human sodium channel NaV1.2 (hNaV1.2 CHO cells) was maintained in the Qpatch instrument at a potential of −100 millivolts (mV) except when the voltage protocol was being executed. The first pulse in the protocol involved a 100 millisecond depolarization to 0 mV to enable measurement of channel availability in the closed state (state A). The potential was then maintained at −90 mV for 15 milliseconds, followed by a five millisecond period of depolarization to 0 mV to enable measurement of channel availability after partial recovery from fast inactivation (state B). Next, the potential was maintained at −90 mV for 300 milliseconds, followed by ten seconds at −50 mV, 15 milliseconds at −90 mV, and finally another five millisecond period of depolarization to 0 mV to enable measurement of channel availability after additional recovery from fast inactivation and significant entry into the slow inactivated state (state C). Finally, after an additional 300 millisecond period at −90 mV, another five millisecond period of depolarization to 0 mV was employed to enable measurement of channel availability after partial recovery from the slow inactivated state (state D). Measurements of activity at state C were used to assess the activity of the NaV1.2 channel in the slow inactivated state. Comparison of activity after addition of test compounds or reference compounds with activity after addition of vehicle only provided a measure of percent remaining activity from which percent inhibition was calculated. […] A slight modification of this protocol was utilized to provide measurements as a function of compound concentration, which enabled IC50 values to be determined. IC50 values were calculated by non-linear least squares regression of the data (percent inhibition of ion channel NaV1.2 activity in the slow inactivated state) onto equation (1): % inhibition=100%/(1+(IC50/[compound]) equation (1)
# J Pharmacol Exp Ther. 2008 July; 326(1):89-99.].
# [2] = biological target: T1, recombinant human serotonin receptor 5-HT2A (Homo sapiens, UniProt P28223); assay: 5-HT2A antagonist Ca2+ assay in CHO-K1 cells (method A aequorin luminescence / method B FLIPR fluorescence); format: cell-based; conditions: antagonist mode vs EC80 of reference agonist, method A or B, read-out: 5HT2A IC50
# T1 construct: expressed in transfected cells; method B: loaded with Ca2+ dye
# T1 sequence (P28223 whole entry): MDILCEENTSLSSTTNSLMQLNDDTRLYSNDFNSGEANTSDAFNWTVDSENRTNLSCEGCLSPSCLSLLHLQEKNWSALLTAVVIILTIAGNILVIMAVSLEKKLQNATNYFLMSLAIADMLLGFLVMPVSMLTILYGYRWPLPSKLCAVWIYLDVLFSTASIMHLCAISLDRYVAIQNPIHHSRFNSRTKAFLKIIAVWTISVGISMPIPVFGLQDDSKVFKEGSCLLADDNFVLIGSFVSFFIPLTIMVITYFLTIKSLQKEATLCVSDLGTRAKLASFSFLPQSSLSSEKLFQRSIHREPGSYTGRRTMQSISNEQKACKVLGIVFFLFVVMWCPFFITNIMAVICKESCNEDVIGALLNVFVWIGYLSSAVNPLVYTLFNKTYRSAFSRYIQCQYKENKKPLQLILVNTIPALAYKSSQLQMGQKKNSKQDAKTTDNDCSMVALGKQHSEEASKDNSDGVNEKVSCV
# Method in brief: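 Method A: CHO-K1 cells co-expressing human 5-HT2A and mitochondrial apoaequorin were given reference agonist at EC80 15 min after compound, with luminescence read. Method B: dye-loaded 5-HT2A CHO-K1 cells were pretreated with compound, then given serotonin at EC80, with FLIPR fluorescence read. IC50s came from nonlinear fits of percent inhibition.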
Structure (SMILES),IC50 [2],inhibition at 1 µM [1],inhibition at 10 µM [1],IC50 [1]
"Fc1ccc(OC2COC3(C2)CN(CC2Cc4cccnc4C2)C3)cc1 (centres unmarked) [Example 370, 2-((6,7-dihydro-5H-cyclopenta[b]pyridin-6-yl)methyl)-7-(4-fluorophenoxy)-5-oxa-2-azaspiro[3.4]octane]",100 nM,,,2010 nM
"OC(CO[C@@H]1CCc2ccccc21)CN1CC[C@@H](Oc2ccc(F)cc2)C1 (stereo partly drawn) [Example 44, 1-(((R)-2,3-dihydro-1H-inden-1-yl)oxy)-3-((R)-3-(4-fluorophenoxy)pyrrolidin-1-yl)propan-2-ol]",140 nM,,,240 nM
"Fc1ccc(O[C@@H]2CCCN(CC3CCc4ccccc43)C2)cc1 (stereo partly drawn) [Example 253, (3R)-1-((2,3-dihydro-1H-inden-1-yl)methyl)-3-(4-fluorophenoxy) piperidine]",1170 nM,21%,,
"O=C1c2ccccc2CCN1CCN1CCCC(Oc2ccc(F)cc2)CC1 (centres unmarked) [Example 274, 2-(2-(4-(4-fluorophenoxy)azepan-1-yl)ethyl)-3,4-dihydroisoquinolin-1(2H)-one]",190 nM,27%,,
"COc1ccc2c(c1)C(CN1CCC(Oc3ccccc3)CC1)CC2 (centres unmarked) [Example 107, 1-((6-methoxy-2,3-dihydro-1H-inden-1-yl)methyl)-4-phenoxypiperidine]",4 nM,,,1990 nM
"OC(COc1ccccc1)CN1CCN(c2cccc(Cl)c2)CC1 (centres unmarked) [Example 89, 1-(4-(3-chlorophenyl)piperazin-1-yl)-3-phenoxypropan-2-ol]",70 nM,,,440 nM
"Clc1ccccc1OCCN1CCN(c2nsc3ccccc23)CC1 [Example 69, 3-(4-(2-(2-chlorophenoxy)ethyl)piperazin-1-yl)benzo[d]isothiazole]",3 nM,,91%,
"Cc1cccc(N2CCN(CC3COCc4ccccc43)CC2)c1C (centres unmarked) [Example 57, 1-(2,3-dimethylphenyl)-4-(isochroman-4-ylmethyl)piperazine]",100 nM,,83%,
"OC(COC1CCCCC1)CN1C[C@@H]2CC[C@H]1CN2c1ccccc1 (stereo partly drawn) [Example 317, 1-(cyclohexyloxy)-3-((1S,4S)-5-phenyl-2,5-diazabicyclo[2.2.2]octan-2-yl)propan-2-ol]",490 nM,,,1830 nM
"c1ccc(OC2COC3(CCN(CC4CCc5ccccc54)CC3)C2)cc1 (single isomer, unassigned) [Example 380, 8-((2,3-dihydro-1H-inden-1-yl)methyl)-3-phenoxy-1-oxa-8-azaspiro[4.5]decane]",150 nM,,,120 nM
"Fc1ccc(OC2CCN(CCC3COCc4ccccc43)CC2)cc1 (centres unmarked) [Example 184, 4-(4-fluorophenoxy)-1-(2-(isochroman-4-yl)ethyl)piperidine]",80 nM,35%,,

# Now from value to compound, other results behind:
IC50 [2],inhibition at 1 µM [1],inhibition at 10 µM [1],Structure (SMILES),IC50 [1]
10 nM,,,"c1ccc(OC2CCN(CC3CCc4ccccc43)CC2)cc1 (centres unmarked) [Example 106, 1-((2,3-dihydro-1H-inden-1-yl)methyl)-4-phenoxypiperidine]",> 10000 nM
160 nM,41%,,"C[C@@H]1C[C@@]2(CCc3ccccc3O2)CCN1CCN1CCc2ccccc2C1=O [Example 426, 2-(2-((2R,2′R)-2′-methylspiro[chromane-2,4′-piperidin]-1′-yl)ethyl)-3,4-dihydroisoquinolin-1(2H)-one]",
10 nM,34%,,"Fc1ccc(OC2CCN(CCC3COc4cccnc43)CC2)cc1 (centres unmarked) [Example 177, 3-(2-(4-(4-fluorophenoxy)piperidin-1-yl)ethyl)-2,3-dihydrofuro[3,2-b] pyridine]",
550 nM,16%,,"c1ccc(C2COC3(C2)CN(CC2CCc4ccccc42)C3)cc1 (centres unmarked) [Example 359, 2-((2,3-dihydro-1H-inden-1-yl)methyl)-7-phenyl-5-oxa-2-azaspiro[3.4]octane]",
170 nM,,81%,"COc1cccc(OCCN2CCC(Oc3ccccc3)CC2)c1 [Example 224, 1-(2-(3-methoxyphenoxy)ethyl)-4-phenoxypiperidine]",
